Test results as given in patent US20250143299A1, “METHODS AND COMPOSITIONS FOR CONTROLLING PESTS IN VEGETABLES” (Globachem NV, priority 2022, published 2025).

Assays:
Type in all cases: in vivo
Spodoptera exigua = assay: Example 1 tomato plot trial, Spodoptera exigua (beet armyworm) control; details: appl. A, 15 DAA
Description: Tomato—Spodoptera exigua (Beet Armyworm)
(§1) Trial conducted in 4 replicates on plots of 10 plants each. Application A was made at the occurrence of the insects.
The statistical design of this study was a completely randomized blocks design including 4 replicates. The homogeneity of variance was tested for all treatments and assessment dates by means of the Bartlett's test. In order to study the effect of the applied treatments for each assessment data, means were compared using Student-Newman-Keuls (p=0.05).

Tomato = assay: Example 1 phytotoxicity, general injury (PHYGEN) on tomato; details: appl. A
Excerpt: “Low Phytotoxicity” of pelargonic acid, as used herein means that the toxic effect on plants is absent or at such a level so as not to adversely impact the growth and/or yield of the plant under a given set of test conditions, e.g., at a given concentration of pelargonic acid. Phytotoxic effects may be measured in a number of different ways, for example, according to the principals set out in OEPP/EPPO Bulletin (2014) 44(3), 265-273 “PP 1/135 (4) Phytotoxicity assessment”. The phytotoxic effect on plants may be assessed visually as a function of the percentage of discoloration to the leaves and/or the appearance of necrosis. When the pelargonic acid compositions are applied to the foliage of the vegetable plants in accordance with the teachings herein, will typically result in a level of phytotoxicity of less than 20%, preferably less than 15%, more preferably less than 10% necrosis of the leaves in comparison to untreated plants. Preferred uses of the invention will typically result in phytotoxicity of 7% or less, whilst the most preferred uses will typically result in phytotoxicity of 5% or less. The above values are approximate as any purely visual assessment is likely to contain a degree of subjectivity.
as §1

Tuta absoluta = assay: Example 2 tomato trial, Tuta absoluta (tomato leafminer) control; details: appl. AB
Description: Tomato—Tuta absoluta (Tomato Leafminer)
Trial conducted in 4 replicates on plots of 25 plants each. Application was made at the occurrence of the insects.
Insects present at the time of application: at App A 0.3/plot, at App B in untreated: 34/plot
Efficacy is assessed by checking on the leaves the % of damage caused by the insects.

Aphis fabae = assay: Example 5 pea trial, Aphis fabae (black bean aphid) control; details: appl. AB
Description: Peas—Aphis fabae (Black bean aphid)
The trial was conducted on peas, variety Batuta, 4 replicates per plot. A water volume of 200 L water/ha was used for each application. Two applications were made, Application A was made at first infestation and Application B was made 14d later. Each plot at least 12 m^2.
Insects present at the time of application: at App A 197/20 shoots, at App B in untreated: 443/20 shoots.

SMILES: CCCCCCCCC(=O)O [PA, pelargonic acid]
- Damage severity (1-4), plant (Spodoptera exigua; 650 g/ha (1 L/ha)): 61.37 a % UNCK
- Nr damaged leaves (Spodoptera exigua; 650 g/ha (1 L/ha)): 63.30 a % UNCK
- Nr of larvae (Spodoptera exigua; 650 g/ha (1 L/ha)): 73.85 b % UNCK
- Damage severity (1-4), plant (Spodoptera exigua; 1300 g/ha (2 L/ha)): 61.01 a % UNCK
- Nr damaged leaves (Spodoptera exigua; 1300 g/ha (2 L/ha)): 71.72 a % UNCK
- Nr of larvae (Spodoptera exigua; 1300 g/ha (2 L/ha)): 79.47 b % UNCK
- Damage severity (1-4), plant (Spodoptera exigua; 2600 g/ha (4 L/ha)): 64.85 a % UNCK
- Nr damaged leaves (Spodoptera exigua; 2600 g/ha (4 L/ha)): 63.54 a % UNCK
- Nr of larvae (Spodoptera exigua; 2600 g/ha (4 L/ha)): 90.18 a % UNCK
- Phytotoxicity - General Injury (PHYGEN) (Tomato; 650 g/ha (1 L/ha), 0 DAA): 0%
- Phytotoxicity - General Injury (PHYGEN) (Tomato; 650 g/ha (1 L/ha), 2 DAA): 0%
- Phytotoxicity - General Injury (PHYGEN) (Tomato; 650 g/ha (1 L/ha), 8 DAA): 0%
- Phytotoxicity - General Injury (PHYGEN) (Tomato; 650 g/ha (1 L/ha), 15 DAA): 0%
- Phytotoxicity - General Injury (PHYGEN) (Tomato; 1300 g/ha (2 L/ha), 0 DAA): 0%
- Phytotoxicity - General Injury (PHYGEN) (Tomato; 1300 g/ha (2 L/ha), 2 DAA): 0%
- Phytotoxicity - General Injury (PHYGEN) (Tomato; 1300 g/ha (2 L/ha), 8 DAA): 0%
- Phytotoxicity - General Injury (PHYGEN) (Tomato; 1300 g/ha (2 L/ha), 15 DAA): 0%
- Phytotoxicity - General Injury (PHYGEN) (Tomato; 2600 g/ha (4 L/ha), 0 DAA): 0%
- Phytotoxicity - General Injury (PHYGEN) (Tomato; 2600 g/ha (4 L/ha), 2 DAA): 0%
- Phytotoxicity - General Injury (PHYGEN) (Tomato; 2600 g/ha (4 L/ha), 8 DAA): 0%
- Phytotoxicity - General Injury (PHYGEN) (Tomato; 2600 g/ha (4 L/ha), 15 DAA): 0%
- # Damaged leaves (Tuta absoluta; 1300 g/ha (2 L/ha), 3 DAA): 47 % UNCK
- # Damaged leaves (Tuta absoluta; 1300 g/ha (2 L/ha), 3 DAB): 31 % UNCK
- # Damaged leaves (Tuta absoluta; 1300 g/ha (2 L/ha), 7 DAA): 68 % UNCK
- # Damaged leaves (Tuta absoluta; 1300 g/ha (2 L/ha), 7 DAB): 32 % UNCK
- # Damaged leaves (Tuta absoluta; 1300 g/ha (2 L/ha), 14 DAA): 70 % UNCK
- # Damaged leaves (Tuta absoluta; 1950 g/ha (3 L/ha), 3 DAA): 51 % UNCK
- # Damaged leaves (Tuta absoluta; 1950 g/ha (3 L/ha), 3 DAB): 42 % UNCK
- # Damaged leaves (Tuta absoluta; 1950 g/ha (3 L/ha), 7 DAA): 69 % UNCK
- # Damaged leaves (Tuta absoluta; 1950 g/ha (3 L/ha), 7 DAB): 46 % UNCK
- # Damaged leaves (Tuta absoluta; 1950 g/ha (3 L/ha), 14 DAA): 72 % UNCK
- # Damaged leaves (Tuta absoluta; 2600 g/ha (4 L/ha), 3 DAA): 58 % UNCK
- # Damaged leaves (Tuta absoluta; 2600 g/ha (4 L/ha), 3 DAB): 47 % UNCK
- # Damaged leaves (Tuta absoluta; 2600 g/ha (4 L/ha), 7 DAA): 74 % UNCK
- # Damaged leaves (Tuta absoluta; 2600 g/ha (4 L/ha), 7 DAB): 42 % UNCK
- # Damaged leaves (Tuta absoluta; 2600 g/ha (4 L/ha), 14 DAA): 78 % UNCK
- # Damaged leaves (Tuta absoluta; 5200 g/ha (8 L/ha), 3 DAA): 59 % UNCK
- # Damaged leaves (Tuta absoluta; 5200 g/ha (8 L/ha), 3 DAB): 42 % UNCK
- # Damaged leaves (Tuta absoluta; 5200 g/ha (8 L/ha), 7 DAA): 75 % UNCK
- # Damaged leaves (Tuta absoluta; 5200 g/ha (8 L/ha), 7 DAB): 49 % UNCK
- # Damaged leaves (Tuta absoluta; 5200 g/ha (8 L/ha), 14 DAA): 75 % UNCK
- COUINS (count of insects), 20 shoots (Aphis fabae; 585 g/ha (0.9 L/ha), 3 DAA): 7.66 % UNCK
- COUINS (count of insects), 20 shoots (Aphis fabae; 585 g/ha (0.9 L/ha), 3 DAB): 32.43 % UNCK
- COUINS (count of insects), 20 shoots (Aphis fabae; 585 g/ha (0.9 L/ha), 7 DAA): 17.73 % UNCK
- COUINS (count of insects), 20 shoots (Aphis fabae; 585 g/ha (0.9 L/ha), 7 DAB): 33.74 % UNCK
- COUINS (count of insects), 20 shoots (Aphis fabae; 975 g/ha (1.5 L/ha), 3 DAA): 9.21 % UNCK
- COUINS (count of insects), 20 shoots (Aphis fabae; 975 g/ha (1.5 L/ha), 3 DAB): 39.08 % UNCK
- COUINS (count of insects), 20 shoots (Aphis fabae; 975 g/ha (1.5 L/ha), 7 DAA): 22.27 % UNCK
- COUINS (count of insects), 20 shoots (Aphis fabae; 975 g/ha (1.5 L/ha), 7 DAB): 51.21 % UNCK
- COUINS (count of insects), 20 shoots (Aphis fabae; 1300 g/ha (2.0 L/ha), 3 DAA): 44.25 % UNCK
- COUINS (count of insects), 20 shoots (Aphis fabae; 1300 g/ha (2.0 L/ha), 3 DAB): 65.79 % UNCK
- COUINS (count of insects), 20 shoots (Aphis fabae; 1300 g/ha (2.0 L/ha), 7 DAA): 63.58 % UNCK
- COUINS (count of insects), 20 shoots (Aphis fabae; 1300 g/ha (2.0 L/ha), 7 DAB): 65.14 % UNCK
- COUINS (count of insects), 20 shoots (Aphis fabae; 2600 g/ha (4.0 L/ha), 3 DAA): 72.11 % UNCK
- COUINS (count of insects), 20 shoots (Aphis fabae; 2600 g/ha (4.0 L/ha), 3 DAB): 76.77 % UNCK
- COUINS (count of insects), 20 shoots (Aphis fabae; 2600 g/ha (4.0 L/ha), 7 DAA): 82.08 % UNCK
- COUINS (count of insects), 20 shoots (Aphis fabae; 2600 g/ha (4.0 L/ha), 7 DAB): 76.67 % UNCK
